Where two headings read alike, the source gives them in different places.
Tests used:
[1] = design: method as in PMID 3958901; conditions: PEG 400/water mixtures; cadaver skin; infinite dose; cited from earlier work
[2] = Dynamic Vapor Sorption (DVS) study of NIA solutions; assay type: physicochemical; conditions: label = vehicle of a 5% (w/v) NIA solution; 5 μL; 32 ± 1 °C, 50 ± 2% RH; n = 3
Procedure: Nitrogen was used as the carrier gas (200 mL/min). To monitor mass differences, 15 mm quartz glass pans connected to a microbalance accurate to 0.00001 mg were employed. Then, 5 μL solutions of 5% NIA (w/v) were added to the pans, and data were recorded using a Universal Analysis 2000 (TA Instrument, New Castle, DE, USA). Temperature and relative humidity (RH) were maintained over the course of the studies at 32 ± 1 °C and 50 ± 2% RH, respectively.

[3] = design: method as in PMID 30529662; conditions: label = solvent; cited from earlier work
[4] = design: method as in PMID 30529662; conditions: label = neat solvent of the NIA solution; porcine skin; cited from earlier work
[5] = design: method as in PMID 30529662; conditions: label = neat solvent of the NIA solution; finite dose; porcine skin; cited from earlier work
[6] = design: method as in Suwanpidokkul et al.; conditions: porcine skin, infinite dose, ref Suwanpidokkul et al., cited from earlier work

Compound	Flux trend with increasing PEG 400 concentration in the formulation [1]	Percentage of applied weight recovered at 24 h (DVS) [2]	Skin retention of NIA [4]	Cumulative permeation of NIA at 24 h [5]	also measured
O=C(O)CCc1nc(-c2ccccc2)c(-c2ccccc2)o1 [oxaprozin]	drop linearly	–	–	–	–
CCOCCOCCO [TC, Transcutol® P]	–	17.6 ± 0.5%	16.4 ± 5.8%	95.1 μg/cm^2	Solubility of NIA [3]: 8.0 ± 0.6%
Cc1cn([C@H]2C[C@H](N=[N+]=[N-])[C@@H](CO)O2)c(=O)[nH]c1=O [zidovudine]	–	–	–	–	Flux ([6]; PEG 400/water vehicle): 15.52 ± 0.60 μg/cm^2/h; Flux ([6]; ethanol/water vehicle): 9.96 ± 0.63 μg/cm^2/h; Flux ([6]; isopropanol/water vehicle): 10.35 ± 0.67 μg/cm^2/h
N=C(N)N/N=C/c1c(Cl)cccc1Cl [guanabenz]	drop linearly	–	–	–	–
CO[C@H]1CO[C@H]2[C@@H]1OC[C@H]2OC [DMI, dimethyl isosorbide]	–	76.3 ± 0.1%	16.7 ± 6.3%	103.6 μg/cm^2	–
CC(O)CO (centres unmarked) [PG, propylene glycol]	–	44.6 ± 0.02%	–	46.0 μg/cm^2	–

— PMC7761779 (Polymers, 2020)
